Legend:
[1] = system: Haemaphysalis longicornis; test: Test Example 3: Insecticidal Test on Haemaphysalis longicornis By Treating Glass Surface; format: in vivo; details: for Mortality Rate (%): after 2 days
Method: Acetone solutions were each prepared for the present hydrazide compounds and the present ester compounds. To inner walls of a glass screw tube and lid (NO. 5, manufactured by Maruemu Corporation), 0.2 mL of the acetone solution was uniformly applied. […] The lid is closed tightly, and the number of dead ticks is examined after 2 days.

[2] = Haemaphysalis longicornis, 48 h, read-out: Mortality Rate (%)

Compound | melting point [°C] | also measured
CC(C)(C)OC(=O)N(NC(=O)C1CC1)c1cc(C2=NOC(c3cc(Cl)cc(Cl)c3)(C(F)(F)F)C2)ccc1Cl (stereo not drawn) | 180 | –
C=CC(=O)NN(C(=O)OC(C)(C)C)c1cc(C2=NOC(c3cc(Cl)cc(Cl)c3)(C(F)(F)F)C2)ccc1Cl (stereo not drawn) | 119 | –
CC(=O)NNc1cccc(C2=NOC(c3cc(Cl)cc(Cl)c3)(C(F)(F)F)C2)c1 (stereo not drawn) | 100 | –
CC(=O)N(C)N(C(=O)OC(C)(C)C)c1cccc(C2=NOC(c3cc(Cl)cc(Cl)c3)(C(F)(F)F)C2)c1 (stereo not drawn) | 79 | –
CC(=O)N(NC(=O)C1CC1)c1cc(C2=NOC(c3cc(Cl)cc(Cl)c3)(C(F)(F)F)C2)ccc1Cl (stereo not drawn) | 160 | –
CC(=O)N(C)Nc1cccc(C2=NOC(c3cc(Cl)cc(Cl)c3)(C(F)(F)F)C2)c1 (stereo not drawn) | 88 | –
COCC(=O)NN(C(C)=O)c1cc(C2=NOC(c3cc(Cl)cc(Cl)c3)(C(F)(F)F)C2)ccc1Cl (stereo not drawn) | 164 | –
O=C(NN(C(=O)c1ccccc1)c1cc(C2=NOC(c3cc(Cl)cc(Cl)c3)(C(F)(F)F)C2)ccc1Cl)C1CC1 (stereo not drawn) | 172 | –
O=C(CCC(F)(F)F)NN(C(=O)c1ccccc1)c1cc(C2=NOC(c3cc(Cl)cc(Cl)c3)(C(F)(F)F)C2)ccc1Cl (stereo not drawn) | 157 | –
CC(=O)N(C)N(C)c1cccc(C2=NOC(c3cc(Cl)cc(Cl)c3)(C(F)(F)F)C2)c1 (stereo not drawn) | 151 | –
Cc1ccc(C2=NOC(c3cc(Cl)cc(Cl)c3)(C(F)(F)F)C2)cc1NNC(=O)OC(C)C (stereo not drawn) | 71 | –
3-phenoxybenzyl (1R)-cis/trans-2,2-dimethyl-3-(2-methylprop-1-enyl)cyclopropanecarboxylate [Present ester compound (1), reference compound] | – | Mortality Rate (%) ([1]; ester compound alone 4 mg/m^2, glass surface): 15%
CC(C)=C[C@@H]1[C@@H](C(=O)O[C@H](C#N)c2cccc(Oc3ccccc3)c2)C1(C)C (relative stereo) [Present ester compound (3), (1S)-α-cyano-3-phenoxybenzyl (1R)-trans-2,2-dimethyl-3-(2-methylprop-1-enyl)cyclopropanecarboxylate, reference compound] | – | Mortality Rate (%) ([1]; ester compound alone 0.8 mg/m^2, glass surface): 10%
CC(C)=CC1(C=C(Cl)Cl)C(C(=O)OCc2cccc(Oc3ccccc3)c2)C1(C)C (stereo not drawn) [Present ester compound (2), 3-phenoxybenzyl 3-(2,2-dichlorovinyl)-2,2-dimethyl-3-(2-methylprop-1-enyl)cyclopropanecarboxylate, reference compound] | – | mortality at 0.8 mg/m2 [1, 2]: 13%
O=C(CCC(F)(F)F)NNc1cc(C2=NOC(c3cc(Cl)cc(Cl)c3)(C(F)(F)F)C2)ccc1Cl (stereo not drawn) [Present hydrazide compound (17), N′-{5-[5-(3,5-dichlorophenyl)-5-trifluoromethyl-4,5-dihydroisoxazol-3-yl]-2-chlorophenyl}-4,4,4-trifluorobutyrohydrazide] | – | mortality at 0.032 mg/m2 [1, 2]: 3.3%; mortality at 0.16 mg/m2 [1, 2]: 40%
CN(NC(=O)CCC(F)(F)F)c1cc(C2=NOC(c3cc(Cl)cc(Cl)c3)(C(F)(F)F)C2)ccc1Cl (stereo not drawn) [Present hydrazide compound (31), N′-methyl-N′-{2-chloro-5-[5-(3,5-dichlorophenyl)-5-trifluoromethyl-4,5-dihydroisoxazol-3-yl]phenyl}-4,4,4-trifluorobutyrohydrazide] | – | mortality at 0.0064 mg/m2 [1, 2]: 3.3%

Now from value to compound, other results behind:

melting point [°C] | Compound | also measured
105 | O=C(NNc1cc(C2=NOC(c3cc(Cl)cc(Cl)c3)(C(F)(F)F)C2)ccc1Cl)c1ccccc1 (stereo not drawn) | –
94 | CC(=O)NNc1cc(C2=NOC(c3cc(Cl)cc(Cl)c3)(C(F)(F)F)C2)ccc1Cl (stereo not drawn) | –
92 | CCC(=O)NNc1cc(C2=NOC(c3cc(Cl)cc(Cl)c3)(C(F)(F)F)C2)ccc1Cl (stereo not drawn) | –
64 | O=C(NNc1cc(C2=NOC(c3cc(Cl)cc(Cl)c3)(C(F)(F)F)C2)ccc1Cl)C(F)(F)F (stereo not drawn) | –
205 | O=C(NNc1cc(C2=NOC(c3cc(Cl)cc(Cl)c3)(C(F)(F)F)C2)ccc1Cl)c1cccnc1 (stereo not drawn) | –
115 | O=C(NNc1cc(C2=NOC(c3cc(Cl)cc(Cl)c3)(C(F)(F)F)C2)ccc1Cl)c1ccncc1 (stereo not drawn) | –
212 | CN(C)C(=O)NNc1cc(C2=NOC(c3cc(Cl)cc(Cl)c3)(C(F)(F)F)C2)ccc1Cl (stereo not drawn) | –
90 | C=CC(=O)NNc1cc(C2=NOC(c3cc(Cl)cc(Cl)c3)(C(F)(F)F)C2)ccc1Cl (stereo not drawn) | –
231 | O=C(NNc1cc(C2=NOC(c3cc(Cl)cc(Cl)c3)(C(F)(F)F)C2)ccc1Cl)c1ccc([N+](=O)[O-])cc1 (stereo not drawn) | –
82 | CCCC(=O)NNc1cc(C2=NOC(c3cc(Cl)cc(Cl)c3)(C(F)(F)F)C2)ccc1Cl (stereo not drawn) | –
205 | O=C(/C=C/c1ccccc1)NNc1cc(C2=NOC(c3cc(Cl)cc(Cl)c3)(C(F)(F)F)C2)ccc1Cl (stereo not drawn) | –
131 | COc1ccc(C(=O)NNc2cc(C3=NOC(c4cc(Cl)cc(Cl)c4)(C(F)(F)F)C3)ccc2Cl)cc1 (stereo not drawn) | –
108 | CC(=O)NN(C(C)=O)c1cc(C2=NOC(c3cc(Cl)cc(Cl)c3)(C(F)(F)F)C2)ccc1Cl (stereo not drawn) | –
107 | CC(=O)N(NC(=O)c1ccccc1)c1cc(C2=NOC(c3cc(Cl)cc(Cl)c3)(C(F)(F)F)C2)ccc1Cl (stereo not drawn) | –
142 | CC(=O)NN(C(=O)c1ccccc1)c1cc(C2=NOC(c3cc(Cl)cc(Cl)c3)(C(F)(F)F)C2)ccc1Cl (stereo not drawn) | –
131 | O=C(NNc1cc(C2=NOC(c3cc(Cl)cc(Cl)c3)(C(F)(F)F)C2)ccc1Cl)Nc1ccccc1 (stereo not drawn) | –
201 | O=C(NNc1cc(C2=NOC(c3cc(Cl)cc(Cl)c3)(C(F)(F)F)C2)ccc1Cl)Nc1ccc([N+](=O)[O-])cc1 (stereo not drawn) | –
126 | FC(F)(F)C1(c2cc(Cl)cc(Cl)c2)CC(c2ccc(Cl)c(NNC(=S)NC3CCCCC3)c2)=NO1 (stereo not drawn) | –
213 | FC(F)(F)C1(c2cc(Cl)cc(Cl)c2)CC(c2ccc(Cl)c(NNC(=S)Nc3ccccc3)c2)=NO1 (stereo not drawn) | –

Reference: patent US20130131116A1, “PEST CONTROL COMPOSITION” (SUMITOMO CHEMICAL COMPANY, LIMITED, priority 2010, published 2013)
